US7062219B2, “Protein fragment complementation assays for high-throughput and high-content screening” (Odyssey Thera Inc., priority 1997, dated 2006)
Entries after “also recorded” stand apart in the source; their conditions may differ. One block for each compound: values may come before it.

Key:
[1] = target: T1, Chk1/p53 interaction (Homo sapiens, UniProt O14757); test: beta-lactamase PCA (BLA PCA) for Chk1/p53 in HEK293E cells; type: cell-based; settings: HEK293E cells treated with 300 nM camptothecin; 10 micromolar DBH, 50 micromolar Go6976
T1 construct: expressed in transfected cells; host or cells: HEK293E
T1 sequence (O14757 1-476): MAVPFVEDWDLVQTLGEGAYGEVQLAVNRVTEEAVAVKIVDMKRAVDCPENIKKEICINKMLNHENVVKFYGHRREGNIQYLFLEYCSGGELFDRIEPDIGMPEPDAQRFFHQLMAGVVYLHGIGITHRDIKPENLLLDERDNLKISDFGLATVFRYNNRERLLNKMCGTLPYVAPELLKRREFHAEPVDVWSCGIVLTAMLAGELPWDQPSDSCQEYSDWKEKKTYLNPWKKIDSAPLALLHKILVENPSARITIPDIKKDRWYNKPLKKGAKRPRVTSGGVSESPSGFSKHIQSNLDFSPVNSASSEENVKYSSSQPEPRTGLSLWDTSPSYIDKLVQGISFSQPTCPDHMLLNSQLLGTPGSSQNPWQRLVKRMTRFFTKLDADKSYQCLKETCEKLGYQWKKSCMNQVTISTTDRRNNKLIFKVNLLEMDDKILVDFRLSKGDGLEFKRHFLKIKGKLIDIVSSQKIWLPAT
Description: For the BLA PCA, the genes of interest—which were known to be involved in DNA damage response pathways—were fused to BLA reporter fragments, and co-transfected in pairs (in 6 replicates) into HEK293E cells. Specifically, interactions between two key proteins, p53 and the checkpoint kinase, Chk1, were evaluated for their response to the DNA damaging agent camptothecin (CPT) and various known drugs or compounds. Full length cDNAs (sequence verified) encoding p53 [NM_000546] and Chk1 [NM_001274] were amplified by PCR and the resulting fragments fused in-frame to the 3′-end of BLA[1] or BLA[2] through a flexible 10 amino acid linker. The resulting BLA[1]-p53, BLA[2]-p53, and BLA[2]-Chk1 constructs contained an EBNA-1 origin for episomal replication in HEK293E cells, but no selectable markers for long term maintenance in cell culture. All constructs were sequenced to confirm the integrity of the reporter-gene fusion prior to use in assays. […] Hydrolysis of the beta-lactam ring by reconstituted BLA releases free coumarin which has a blue fluorescence. […] For each protein pair, the rate of hydrolysis of the substrate was determined immediately after addition of substrate by a kinetic assay on a Molecular Devices Gemini XS plate reader. Accumulated fluorescent substrate was excited at 345 nm and detected at 440 nm every 10 minutes for a 90 minute period. […]

[2] = system: p50/p65 complex; test: stable HEK293T p50/p65 YFP PCA cell line, nuclear translocation (N:C ratio); type: cell-based; settings: 10 micromolar compound, 25 ng/ml TNF 30 minutes
Description: Stable cell lines represent the gold standard for HTS since the assays can be reconstructed at any time from frozen stocks of cells. […] First, cells were co-transfected with YFP[2]-p65 encoding vectors, and stable cell lines were selected using 100 micrograms/ml of Hygromycin B (Invitrogen). Selected cell lines were then transfected with YFP[1]-p50. Stable cell lines expressing YFP[1]-p50/YFP[2]-p65 were isolated following double antibiotic selection with 50 μg/ml Hygromycin B and 500 μg/ml Zeocin. Cell clones stably expressing the fusion genes were identified by immunoblot analysis and fluorescence microscopy. A single cell line of each transfectant was selected for further characterization. Fluorescence of these lines is stable over at least 25 passages (data not shown). A stable, MEK/ERK cell line—constructed as described below—was used as a control for TNF effects. Fugene 6 (Roche) was used for all the transfections according to manufacturer's directions. Cells stably expressing YFP[1]-p50/YFP[2]-p65 were seeded at 20,000 cells/well in black-walled poly-lysine coated 96 well plate (Greiner). Twenty-four hours later, the cells were incubated with human TNF-alpha (Roche) for 30 min. Nuclei were stained with Hoechst 33342 (Molecular Probes) at 10 micrograms/ml for 10 min. Cells were rinsed with HBSS (Invitrogen) and kept in the same buffer. Fluorescence was visualized and images were acquired using a Discovery-1 automated fluorescence imager (Molecular Devices, Inc.) equipped with excitation and emission filters 470/35 and 535/60, respectively. […] For the high throughput screening campaign described below, cells were pretreated with compounds (10 micromolar) for 60 minutes and then stimulated with TNFalpha for 30 minutes in the presence of drugs. Cells were then fixed with 2% formaldehyde in HBSS and subsequently stained with Hoechst 33342. All liquid handling was done using a Biomek FX (Beckman) instrument and images were acquired as described above. Images were analyzed using Image J. Translocation is assessed by calculating the nuclear/cytoplasmic ratio of the mean fluorescence intensity for a population of cells (denoted as n) over several images for a given condition.
Genesis Plus is a collection of 960 diverse compounds, and includes compounds with known toxicity or fluorescent properties. Inclusion of compounds with such properties is important in HTS assay validation, as they might complicate analysis. The final concentration of compounds in wells was 10 micromolar, and all wells contained 0.5% DMSO concentration. […] Following fixation and staining of nuclei, fluorescence was analyzed on the automated fluorescent microscopy platform (Discovery 1; Universal Imaging/Molecular Devices Corp.). […]

[3] = system: p53/p53 interaction; test: high-content IFP PCA for p53/p53, nuclear mean fluorescence; type: cell-based, human; settings: Trichostatin A 0.5 micromolar; for effect on p53/p53 interaction in both assays (absence and presence of CPT): unstimulated and 500 nM CPT-stimulated, LY294002 25 micromolar, SB 203580 25 micromolar, Geldanamycin 2.5 micromolar; for effect on p53/p53 interaction (nuclear mean fluorescence) in the presence of CPT: 500 nM CPT 16 hours, MS-275 10 micromolar, HA 14-1 2 micromolar
Text: Open reading frames of full-length human p53 were fused in-frame to the 5′-end of IFP[1] and the 3′-end of IFP[2] to generate the following constructs in a pcDNA3.1 (Invitrogen) backbone: p53-IFP[1] and IFP[2]-p53. The final p53-IFP[1] construct contained a Zeocin selectable marker, while the IFP[2]-p53 construct contained a hygromycin selectable marker. All fusions were through a flexible linker encoding a 10-amino acid peptide (GlyGlyGlyGlySer)2, also referred to throughout as (GGGGS)2 (SEQ ID No.1). DNAs from recombinant constructs were isolated on a Beckman FX robotic workstation (Beckman Coulter, Fullerton, Calif.) using Qiagen Turbo BioRobot Prep kits or manually using Qiagen Midi Prep kits. Isolated DNAs were quantitated and then normalized to a concentration of 50 ng/microliter.
Approximately 24 hours prior to transfection cells were seeded into 96 well poly-D-Lysine coated plates (Greiner) using a Multidrop 384 peristaltic pump system (Thermo Electron Corp., Waltham, Mass.) at a density of 7,500 cells per well. A total of 100 ng of DNA (p53–IFP[1] and IFP[2]-p53) was co-transfected using Fugene 6 (Roche) according to the manufacturer's protocol. Cells expressing the PCA pair in the absence of stimulation were incubated with medium containing drugs for 30 minutes, 90 minutes, and 8 hours. Alternatively, cells stimulated with camptothecin (CPT) were pre-treated with drugs for 2 hours, then incubated with 500 nM CPT for an additional 16 hours in the presence of the following test compounds that were known or suspected to affect the p53 pathway: CPT, genistein, Trichostatin A, MS-275, LY294002, SB203580, HA14-1, or Geldanamycin, at the concentrations indicated in the Legend to FIG. 4. […] Fluorescence resulting from IFP PCA was captured using the Discovery-1automated fluorescence imager (Molecular Devices, Inc.) equipped with a robot arm (CRS Catalyst Express; Thermo Electron Corp., Waltham, Mass.). Images were acquired for YFP fluorescence (excitation filter: 480/40 nm; emission filter 535/50 nm), Hoechst fluorescence (excitation filter: 360/40 nm; emission filter 465/30 nm), and Texas Red fluorescence (excitation filter: 560/50 nm; emission filter 650/40 nm). […]
Automated image analysis was performed using Image J freeware to quantitate the level of fluorescence contributed by the PCA in each image. For the p53:p53 PCA, background contributed by cellular auto-fluorescence was subtracted from each image, then the mean pixel fluorescence intensity was determined within the nucleus of each cell. […] Quantitative values for the unstimulated PCA are shown in mauve, with data from the CPT-stimulated assay shown in blue. […]

effect on the interaction between Chk1 and p53 (mean rate of hydrolysis of BLA substrate) [1]: significant effects
SMILES: NC1=N/C(=C2/CCNC(=O)c3[nH]ccc32)C(=O)N1 [DBH]

SMILES: C=C(C)[C@H]1Cc2c(ccc3c2O[C@@H]2COc4cc(OC)c(OC)cc4[C@@H]2C3=O)O1 [rotenone]
result in Genesis Plus library screen of p50/p65 PCA [2]: called as hits

effect on the interaction between Chk1 and p53 (mean rate of hydrolysis of BLA substrate) [1]: significant effects
SMILES: Cn1c2ccccc2c2c3c(c4c5ccccc5n(CCC#N)c4c21)CNC3=O [Go6976]

SMILES: C[S+]([O-])c1ccc(-c2nc(-c3ccncc3)c(-c3ccc(F)cc3)[nH]2)cc1 (centres unmarked) [SB 203580]
effect on p53/p53 interaction in both assays (absence and presence of CPT) [3]: increased association

SMILES: CC(/C=C/C(=O)NO)=C\[C@@H](C)C(=O)c1ccc(N(C)C)cc1 [Trichostatin A]
effect on p53/p53 interaction (nuclear mean fluorescence) in the presence of CPT [3]: dramatic increase; also recorded: significantly stimulated | effect on p53/p53 interaction in both assays (absence and presence of CPT) [3]: potentiating effect

SMILES: Nc1ccccc1NC(=O)c1ccc(CNC(=O)OCc2cccnc2)cc1 [MS-275]
effect on p53/p53 interaction (nuclear mean fluorescence) in the presence of CPT [3]: significantly stimulated

SMILES: Cn1c(=O)[nH]c(=O)c2[nH]cnc21 [3-methylxanthine]
result in Genesis Plus library screen of p50/p65 PCA [2]: called as hits
